Experimental data taken from patent publication US6784155B1, “Inhibitor and stimulator of stem cell proliferation and uses thereof” (Wellstat Therapeutics Corporation, priority 1996, dated 2004).
Positions of bridges follow the written chain, without caps; N, C: chain ends. No end group written: not given here.

B1: MIP-1α: cytokine macrophage inflammatory protein 1-alpha, previously characterized stem cell inhibitor (protein, UniProt P10147 24-92, looked up)
C-C motif chemokine 3: SLAADTPTACCFSYTSRQIPQNFIADYFETSSQCSKPGVIFLTKRSRQVCADPSEEWVQKYVSDLELSA

Key:
CFU-MIX [1] = test: CFU-MIX cycling assay in vitro (Ara C kill); format: cell-based, mouse; settings: Table 19, 100 ng/ml
Protocol: A similar assay can be performed in vitro, using the cycling status of CFU-MIX instead of CFU-S. The assay is performed as described above for the CFU-S assay except that cytosine arabinoside (Ara C, 30 micrograms/ml) is used as the cycle-specific toxic agent instead of high dose tritiated thymidine (see B. I. Lord in Haemopoiesis—A Practical Approach, N. G. Testa and G. Molineux (Eds.), IRL Press 1993; Pragnell et al. in Culture of Hematopoietic Cells, R. I. Freshney, I. B. Pragnell and M. G. Freshney (Eds.), Wiley Liss 1994) and a mouse strain with high endogenous cycling rates (Balb/c) is used instead of testosterone-treated BDFI mice.
(§1) 24 hours later (Day 1), varying doses of peptide 43-55 or vehicle were injected i.v. Bone marrow was harvested on Day 2 and the […] cycling assay conducted as in Example 14. Specifically, mice were sacrificed and single cell bone marrow suspensions prepared from the femurs. The cells were washed once and the concentration adjusted to 5×10^6 cells/ml in Fischer medium. For each test condition, one milliliter of cells was added to each of two polypropylene tubes. The tubes were incubated at 37° C. for 3 hours without (“Control”) or with (“Experimental”) the appropriate concentration of test substance. At the end of the incubation, 30 μg/ml of cytosine arabinoside (“Ara C” (Sigma)) was added to half of the tubes and the same volume of Fischer's medium was added to the others. The tubes were incubated for a further 1 hour at 37° C., after which they were placed on ice and washed twice with cold Fischer medium.
(§2) The cells were readjusted to 5×10^4-10^6/ml in Fischer's medium and 0.5 ml of cell suspension added to 5 ml of Methocult M3430 methylcellulose medium (Stem Cell Technologies, Vancouver, British Columbia). The mixture was vigorously mixed with a vortex and 1 ml was dispensed into each of five 35 mm dishes. The 35 mm dishes were in turn placed in a covered 150 mm dish with one open 35 mm dish containing sterile water. CFU-MIX colonies were counted with the use of an inverted microscope after 7 days of incubation at 37° C.
Differences in colony number between the tubes treated with medium versus the tubes treated with Ara C represent the percentage of cells in cycle under that condition according to the formula:
a=Number of CFU-MIX from tube incubated with medium alone
b=Number of CFU-MIX from tube incubated with Ara C

CFU-MIX [2] = test: CFU-MIX cycling assay after in vivo injection into testosterone or 5FU treated mice; set-up: species or system mouse; settings: Table 23, 5FU-pretreated animals, 0.5 ng i.v. per 20 gram mouse
Protocol: In order to test the ability of purified porcine hemoglobin chains to act in vivo, BDF1 mice were injected with testosterone propionate as described in Example 1. Twenty four hours later, mice received 500 ng of either pINPROL, porcine hemoglobin alpha chain (purified from peripheral red blood cells as in FIG. 21), porcine beta chain (purified from peripheral red blood cells as in FIG. 21) or the equivalent volume of carrier intravenously. Forty eight hours later the bone marrow from each mouse was harvested and the CFU-MIX assay conducted as described in Example 14.
To assess the stem cell inhibitory activity of peptide 43-55 in vivo, B6D2 F1 mice were pre-treated with testosterone propionate as described in Example 1 or with 5FU. Specifically, testosterone propionate (100 mg/kg body weight) was injected i.p. on Day 0 into mice. Alternatively, mice were injected on Day 0 with 5FU ([…] body weight).
as §1, §2
Differences in colony number between the tubes treated with medium versus the tubes treated with Ara C represent the percentage of cells in cycle under that condition according to the formula: […]

CFU-GEMM = CFU-GEMM cycling assay, human umbilical cord blood cells; format: cell-based; settings: Table 32, cord blood mononuclear cells
Protocol: In order to investigate the ability of purified INPROL from porcine bone marrow to affect cycling on human progenitors, umbilical cord blood cells were obtained. Either the total mononuclear cell fraction obtained after separation on Ficoll or the CD34^+ fraction obtained after fractionation on anti-CD34 affinity columns (CellPro Inc.) was used. Cells were incubated for 48 hours in vitro in the presence of interleukin 3 (IL-3) and stem cell factor (SCF) (100 ng/ml each) in order to ensure that the early stem cells were in cycle. After this preincubation, cycling assays were conducted as described in Example 14 for the mouse except that CFU-GEMM (instead of CFU-MIX) were counted on Day 18 after plating.
The human cord blood CFU-GEMM cycling assay was conducted as in Example 19. Specifically, mononuclear cells were isolated from human umbilical cord blood cells and adjusted to 24×10^4 cells/ml in IMDM tissue culture medium supplemented with 10% FBS, 100 ng/ml kit ligand and 100 ng/ml human IL-3. The cells were incubated for 48 hours at 37° C.
After incubation, cells were washed and resuspended in serun-free NDM at a concentration of 10^6 cells/ml. One ml of cells was added to each of two polypropylene tubes per condition and the cycling assay conducted as in Example 24 for mouse bone marrow. After the Ara C incubation cells were washed with cold NDM and adjusted to 10,000 to 20,000 cells per 0.5 ml IMDM and mixed with 5 ml Methocult H4433 (Stem Cell Technologies). Alternatively, Methocult H4435 methylcellulose medium (Stem Cell Technologies) was used in which case the cell concentration was adjusted to 2500-5000 cells per 0.5 ml IMDM. The cells were plated as in Example 24 and CFU-GEMM colonies scored on days 14-18.

[3] = Distribution of ubiquitin fusion proteins between soluble fraction and precipitate of E. coli lysate (SDS-PAGE); format: physicochemical; settings: after centrifugation of the bacterial lysate
Protocol: To obtain protein for assay, 100 ml starter cultures in 250 ml shake flasks were grown from single colonies by overnight incubation (16-20 hours) in 2×YT medium with ampicillin (100 μg/ml), neomycin (10 μg/ml) and 1% glucose. Shaker flask cultures were maintained at 30° C. and 250 rpm in a New Brunswick environmental shaker incubator. The next morning the culture was diluted to liter with medium Cells were induced by IPTG addition to 1 mM (final dilution) at OD600=0.5 and harvested at OD600=0.8 by centrifugation. The harvested cells were resuspended in hypotonic lysis buffer (100 μl of 50 mM Tris, pH 10.0). The bacterial cells were lysed by subjecting the suspension to three cycles of freeze-thaw (dry ice-ethanol bath for freezing and 60° C. for thawing). The suspension was then sonicated for 10 min and centrifuged at 12,000 g for 10 min. The resulting supernatant was designated as “S1”. The cell pellet was resuspended in 50 mM Tris, pH10 and 2×SDS tricine loading buffer (Novex, San Diego, Calif.) (1:1). The mixture was then heated at 95° C. for 15 min and centrifuged at 12,000 g for 10 min. The portion of the precipitate capable of being resolubilized in this manner was called “P1”. The portion of the precipitate derived from the remaining pellet was called “P2”. P2 was resuspended in loading buffer as for P1. Samples from S1, P1 and P2 were analyzed by SDS-PAGE. […]

CFU-S = CFU-S proliferation assay, 3H-Thymidine suicide method (bone marrow incubated with test fractions); format: cell-based, mouse; settings: Table 8, bone marrow from testosterone treated mice
Protocol: For the detection of stem cells proliferation the number of CFU-S in S-phase of the cell cycle was measured by the ^3H-Thymidine “suicide” method (Becker et al., Blood 26:296-308, 1965).
Immature hematopoietic progenitors-Colony Forming Units in spleen (CFU-S)—can be detected in vivo by forming macroscopic colonies in the spleens of lethally irradiated mice, 8-12 days after the intravenous injection of hematopoietic cells (Till & McCulloch, 1961).
For the standard CFU-S proliferation assay the method of ^3H-Thymidine “suicide” is usually applied (Becker et al., 1965). The method is based on incorporation of radiolabelled Thymidine, (^3H-Thymidine) a precursor of DNA into cells during DNA synthesis. The CFU-S which are in S-phase of the cycle at the time of testing, are killed by the high radioactivity and therefore not able to form colonies in spleen.
The inhibitor testing can not be done with the bone marrow stem cell population from unstimulated animals, as far as the inhibitor only effects cycling CFU-S, which are as low as 7-10% of the total CFU-S population in the bone marrow of normal mice.
To stimulate CFU-S proliferation, phenylhydrazine (PHZ), or sublethal irradiation were used (Lord, 1976).
The TSP induced stimulation of CFU-S proliferation within 20-24 hours after injection and the effect could be seen for at least 7 days.
The procedure used for the screening of the fractions during purification of the Inhibitor was as follows:
Mice: BDF1 or CBF1 mice strains were used throughout all testing.
Donor mice were treated with a 10 mg/100 g dose of TSP by intraperitoneal injection of 0.2 ml/mouse in order to induce 30-35% of the CFU-S into S-phase.
Twenty-four hours later the bone marrow is taken from the femurs for the cell suspension preparation. […]
Recipient spleens are harvested on day 9-12 and fixed in Tellesnitsky's solution; the colonies are scored by eye score. The percentage of cells in S-phase are calculated using the formula. […]

mouse bone marrow cells = test: Colony formation after pre-incubation of bone marrow cells from 5FU-treated mice; format: cell-based; settings: 4 hours pre-incubation
Protocol: The purpose of this experiment was to compare the inhibitory effects of pre-incubation with pINPROL and MIP-1α on mouse bone marrow cells in vitro.
The following procedure was used:
in vivo: BDF1 mice, 6-15 weeks of age, are injected with 200 mg/kg 5FU i.p. 48 hours before harvesting marrow from the femurs.
in vitro: A single cell pooled suspension is counted and 5×10^6 cells are incubated in a total of 2 mls with or without pINPROL or MIP-1α, with 5% horse serum, IMDM media with added L-glutamine, at 37° C. and 5% CO2 for 4 hours. The cells are then washed twice and recounted. They are plated in methylcellulose in the following final conditions:
20 ng/ml recombinant murine IL-3
Plates were incubated for 11 days at 37° C. and 5% CO2 in 100% humidity. Colonies more than 50 cells were counted.

HPP-CFC = HPP-CFC assay after 4 hour pre-incubation; format: cell-based, mouse; settings: 200 ng/ml, day 14
Protocol: An in vitro assay for assessing murine reconstituting stem cells and early precursors is the high proliferative potential colony ([…]) assay; other related assays, e.g., CFU-A, CFU-GM, CFU-E, and CFU-GEMM, detect progressively restricted progenitor populations (M. Moore, Blood […]:2122-2128, 1991).
BDF1 mice were treated with 5-fluorouracil (200 mg/kg i.p.) before their bone marrow was assayed for HPP-CFC numbers. Cells were washed by centrifugation and incubated at densities of 10^6 to 5×10^6/ml in medium with either no added agent (Controls), pINPROL (25 ng/ml) or MIP-1α (200 ng/ml) for 4 hours. After incubation, cells were washed and plated in agar (0.3%) with 30% FCS and combined conditioned medium from 5637 and WEHI-3B cell lines (7.5% of each conditioned medium, as recommended by Sharp et al., 1991). Plating concentration was 5×10^4 cells/ml in 60 mm dishes.

Molecule | % Kill (CFU-MIX [1]) [%] | % Kill (CFU-MIX [2]) [%] | % Kill (CFU-GEMM; 1 ng/ml) [%] | % Kill (CFU-GEMM; 10 ng) [%] | % Kill (CFU-GEMM; 100 ng/ml) [%] | fraction of bacterial lysate containing the peptide [3] | % Kill (CFU-S; 40 ng/ml) [%] | % Kill (CFU-S; 200 ng/ml) [%] | Percent of Control (mouse bone marrow cells; colonies after 11 days) [%] | Colony Number (mouse bone marrow cells; colonies more than 50 cells after 11 days) | % of Control (HPP-CFC) [%] | HPP-CFU (HPP-CFC)
Cys-Phe-Pro-His-Phe-Asp-Leu-Ser-His-Gly-Ser-Ala-Gln-Val-Cys (CFPHFDLSHGSAQVC; disulfide 1-15 (inferred)) [Cyclic Peptide 43-55, cyclic derivative of the 43-55 peptide] | 0 | 14 | 32 | 0 | 11 | contained in the soluble fraction | – | – | – | – | – | –
Hbg: C4 Reverse-phase purified porcine hemoglobin beta chain (derived from 2X crystallized pig hemoglobin) | – | – | – | – | – | – | 7 | 25 | – | – | – | –
B1 | – | – | – | – | – | – | – | 13 | 114 | 35.25 | 101 | 15.8 ± 0.9
